In patent publication US5981517A, “Androstene derivatives” (priority 1997, dated 1999) one finds Vasoconstriction activity and RBA data, which are given here for one compound.

Assay [1] deals with forearms of a human volunteer. The assay is described as follows: Further human vasoconstriction testing, Method 1. It is filed as in vivo. The method, then: The mixtures, in 50 μL amounts, were applied to circular patches (8 mm diameter). After evaporation of ethanol, the patches were applied to the forearms of a human volunteer, and covered with a water impervious film for 3 hr. The intensity of vasoconstriction (scale 0-4) was judged at various time intervals after removal of the patches. The grading scale was as follows: 0, normal skin; 1, slight pallor of indistinct outline; 2, pallor with at least two corners outlined; 3, even pallor with a clear outline of the application sites; 4, very intense pallor. The skin tests (2-4 tests on each compound) were performed on the same person.

For assay [2], the target named is T1, rat lung glucocorticoid receptor (Rattus norvegicus, UniProt P06536).
T1 construct: Immediately after resection of the lungs, the tissue was frozen in ice; The cytosol was prepared; from tissue; host or cells: lung cytosol of adrenalectomized male Sprague-Dawley rats
T1 sequence (P06536 1-795): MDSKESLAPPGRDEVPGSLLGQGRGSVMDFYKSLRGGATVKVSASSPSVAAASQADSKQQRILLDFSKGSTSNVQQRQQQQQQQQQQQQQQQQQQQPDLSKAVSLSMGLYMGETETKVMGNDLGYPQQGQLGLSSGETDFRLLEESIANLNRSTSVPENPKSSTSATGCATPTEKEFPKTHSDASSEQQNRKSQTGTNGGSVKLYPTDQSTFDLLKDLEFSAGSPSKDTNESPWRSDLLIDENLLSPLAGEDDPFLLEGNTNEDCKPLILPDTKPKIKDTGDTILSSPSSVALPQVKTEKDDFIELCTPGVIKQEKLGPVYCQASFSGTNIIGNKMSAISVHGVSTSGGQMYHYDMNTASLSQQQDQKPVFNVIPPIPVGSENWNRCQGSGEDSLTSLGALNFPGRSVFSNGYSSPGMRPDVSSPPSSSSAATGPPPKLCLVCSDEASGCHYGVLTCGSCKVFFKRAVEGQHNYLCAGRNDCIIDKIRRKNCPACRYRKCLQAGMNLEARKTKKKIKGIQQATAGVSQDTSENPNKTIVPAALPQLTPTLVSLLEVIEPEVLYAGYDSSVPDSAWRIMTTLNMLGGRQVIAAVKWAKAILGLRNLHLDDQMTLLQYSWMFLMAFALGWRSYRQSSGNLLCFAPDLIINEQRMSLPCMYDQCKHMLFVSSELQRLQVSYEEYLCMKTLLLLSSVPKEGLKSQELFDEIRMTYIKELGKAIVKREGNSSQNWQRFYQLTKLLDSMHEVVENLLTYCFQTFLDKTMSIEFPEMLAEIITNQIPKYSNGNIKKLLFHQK
As to conditions: previously found, cited from earlier work.

Assay [3] has as its system forearm of a human volunteer. The assay is described as follows: Human vasoconstriction test. It is filed as in vivo. Set-up: key: 0 = normal skin, 4 = very intense pallor. As to conditions: 10 mM. The method, then:
Test compounds (10 mM) were dissolved in ethanol/propylene glycol (9/1) solution, and 50 μL of the mixtures were applied to circular patches, 8 mm in diameter. After ethanol evaporation, the patches were applied to the forearm of a human volunteer, and covered with a water impervious film for 3 hours. The intensity of vasoconstriction was judged 1, 8, 17 and 24 hours after the patches were removed.
The grading scale for the vasoconstriction activity was as follows: 0, normal skin; 1, slight pallor of indistinct outline; 2, pallor with at least two corners outlined; 3, even pallor with a clear outline of the application sites; 4, very intense pallor.

Structures are written as SMILES. Where “and” joins values, the source holds several entries; their conditions need not be identical. Equal entries are not always repeated. Where two headings read alike, the source gives them in different places.

`CCOC(=O)O[C@]1(C(=O)OCCl)CC[C@H]2[C@@H]3CCC4=CC(=O)C=C[C@]4(C)[C@H]3[C@@H](O)C[C@@]21C` [Loteprednol etabonate, chloromethyl 17α-ethoxycarbonyloxy-11β-hydroxyandrosta-1,4-dien-3-one-17β-carboxylate, reference compound]: the Vasoconstriction activity was 0 in assay [1] (3 Hours, 0.01 mM); 0 in assay [1] (3 Hours, 0.05 mM); 1 in assay [1] (3 Hours, 0.1 mM); 2 in assay [1] (3 Hours, 0.5 mM); 3 in assay [1] (3 Hours, 1 mM); 3 in assay [1] (3 Hours, 5 mM). Further, the Vasoconstriction activity in assay [1] (3 Hours, 10 mM) is on record as 4; in assay [1] (20 Hours, 0.01 mM) it was 0; in assay [1] (20 Hours, 0.05 mM), 0; in assay [1] (20 Hours, 0.1 mM), 0; in assay [1] (20 Hours, 0.5 mM), 0; in assay [1] (20 Hours, 1 mM) it was 0. Moreover, the Vasoconstriction activity in assay [1] (20 Hours, 5 mM) was 1; in assay [1] (20 Hours, 10 mM) it was 2; in assay [3] (1 hour after patch removal), 2; in assay [3] (8 hours after patch removal) it was 3 and 2; in assay [3] (17 hours after patch removal) it was 2; in assay [3] (24 hours after patch removal) it was 2 and 1. Moreover, the RBA in assay [2] (with Δ1-cortienic acid) is given as 420; in assay [2] (without Δ1-cortienic acid), 152.
